Laboratory results as given in US20060040871A1, “Bacterial transforming agent” (priority 2003, published 2006).
Where two headings read alike, the source gives them in different places.

Key:
S. aureus = assay: MIC of methicillin for already sensitive S. aureus with GBE, with or without 1% human plasma (Table 6); assay type: cell-based, Staphylococcus aureus; settings: for MIC of methicillin: GBE 0.00075M [0.15%]
Description: As previously mentioned, a common cause of auto-infection is due to S. aureus carried on the anterior nares. […] The transforming agents of the present invention may also be used in combination with a suitable antimicrobial to eliminate nasal carriage of MSSA prior to cardiac surgery or other invasive procedures carrying a high risk of auto-infection.

VRE = assay: Antimicrobial plus BTA against VRE (Table 7); assay type: cell-based, enterococci; settings: +BTA 1.0%
MRSA [1] = assay: MIC of ceftazidime or cefuroxime for MRSA grown with or without GBE (Table 2); assay type: cell-based, Staphylococcus aureus; settings: for MIC of ceftazidime / MIC of cefuroxime: GBE (0.2%)
Description: Importantly, the usefulness of the agents of the present invention is not limited to increasing bacterial sensitivity to methicillin.

MRSA [2] = assay: Antimicrobial plus BTA against recent clinical MRSA isolates (Table 7); assay type: cell-based, Staphylococcus aureus
Description: The four clinical isolates were isolated from patients during the first three months of 2003. […] An intermediate MRSA has been included, as methicillin-resistance has been achieved by means other than production of PBP2a.

[3] = tested on: MRSA with intermediate resistance to glycopeptides; assay: MIC of vancomycin or teicoplanin for MRSA with intermediate resistance to glycopeptides grown with GBE or NAGly (Table 4); assay type: cell-based, Staphylococcus aureus; settings: GBE 0.001M; for MIC: Staphylococcus aureus

## NCC(=O)OCc1ccccc1 [GBE, Glycine Benzyl Ester]
S. aureus; 5518 (EMRSA-1), no plasma
  MIC of methicillin: <0.25 mg/L
S. aureus; 5518 (EMRSA-1), plasma (1%)
  MIC of methicillin: 0.5 mg/L
S. aureus; LHS77, no plasma
  MIC of methicillin: <0.25 mg/L
S. aureus; LHS77, plasma (1%)
  MIC of methicillin: <0.25 mg/L
S. aureus; LHS78, no plasma
  MIC of methicillin: <0.25 mg/L
S. aureus; LHS78, plasma (1%)
  MIC of methicillin: 1 mg/L
S. aureus; LHS79, no plasma
  MIC of methicillin: <0.25 mg/L
S. aureus; LHS79, plasma (1%)
  MIC of methicillin: 0.25 mg/L
S. aureus; LHS80, no plasma
  MIC of methicillin: <0.25 mg/L
S. aureus; LHS80, plasma (1%)
  MIC of methicillin: 0.25 mg/L
S. aureus; LHS81, no plasma
  MIC of methicillin: <0.25 mg/L
S. aureus; LHS81, plasma (1%)
  MIC of methicillin: <0.25 mg/L
S. aureus; LHS82, no plasma
  MIC of methicillin: <0.25 mg/L
S. aureus; LHS82, plasma (1%)
  MIC of methicillin: 4 mg/L
S. aureus; LHS83, no plasma
  MIC of methicillin: <0.25 mg/L
S. aureus; LHS83, plasma (1%)
  MIC of methicillin: 0.25 mg/L
S. aureus; LHS84, no plasma
  MIC of methicillin: <0.25 mg/L
S. aureus; LHS84, plasma (1%)
  MIC of methicillin: 2 mg/L
S. aureus; LHS85, no plasma
  MIC of methicillin: <0.25 mg/L
S. aureus; LHS85, plasma (1%)
  MIC of methicillin: 0.5 mg/L
S. aureus; LHS86, no plasma
  MIC of methicillin: <0.25 mg/L
S. aureus; LHS86, plasma (1%)
  MIC of methicillin: 0.25 mg/L
S. aureus; LHS87, no plasma
  MIC of methicillin: <0.25 mg/L
S. aureus; LHS87, plasma (1%)
  MIC of methicillin: 4 mg/L
S. aureus; LHS88, no plasma
  MIC of methicillin: <0.25 mg/L
S. aureus; LHS88, plasma (1%)
  MIC of methicillin: 0.5 mg/L
S. aureus; LHS89, no plasma
  MIC of methicillin: <0.25 mg/L
S. aureus; LHS89, plasma (1%)
  MIC of methicillin: 0.5 mg/L
S. aureus; LHS90, no plasma
  MIC of methicillin: <0.25 mg/L
S. aureus; LHS90, plasma (1%)
  MIC of methicillin: <0.25 mg/L
S. aureus; LHS91, no plasma
  MIC of methicillin: <0.25 mg/L
S. aureus; LHS91, plasma (1%)
  MIC of methicillin: <0.25 mg/L
S. aureus; LHS92, no plasma
  MIC of methicillin: <0.25 mg/L
S. aureus; LHS92, plasma (1%)
  MIC of methicillin: 1 mg/L
S. aureus; LHS93, no plasma
  MIC of methicillin: <0.25 mg/L
S. aureus; LHS93, plasma (1%)
  MIC of methicillin: 0.5 mg/L
S. aureus; LHS94, no plasma
  MIC of methicillin: <0.25 mg/L
S. aureus; LHS94, plasma (1%)
  MIC of methicillin: 0.5 mg/L
S. aureus; Table 6
  effect on methicillin sensitivity of already sensitive bacteria: increases the sensitivity of already sensitive bacteria to methicillin
VRE
  Vancomycin (antimicrobial plus BTA; quantity not named, MIC implied): 64 µg/mL
MRSA [1]; CD40 (EMRSA-1)
  MIC of ceftazidime: 4 mg/L
  MIC of cefuroxime: 2 mg/L
MRSA [1]; DS09 (EMRSA-1)
  MIC of ceftazidime: 2 mg/L
  MIC of cefuroxime: 2 mg/L
MRSA [1]; E15-97 (EMRSA-15)
  MIC of ceftazidime: 4 mg/L
  MIC of cefuroxime: 4 mg/L
MRSA [1]; E16-96 (EMRSA-16)
  MIC of ceftazidime: 2 mg/L
  MIC of cefuroxime: 4 mg/L
MRSA [1]; JF1-32 (EMRSA-1)
  MIC of ceftazidime: 2 mg/L
  MIC of cefuroxime: 2 mg/L
MRSA [1]; MC01 (EMRSA-1)
  MIC of ceftazidime: 2 mg/L
  MIC of cefuroxime: 4 mg/L
MRSA [1]; NCTC 12493
  MIC of ceftazidime: 2 mg/L
  MIC of cefuroxime: 4 mg/L
MRSA [1]; PS3-32 (EMRSA-1)
  MIC of ceftazidime: 4 mg/L
  MIC of cefuroxime: 4 mg/L
MRSA [1]; SN31 (EMRSA-1)
  MIC of ceftazidime: 4 mg/L
  MIC of cefuroxime: 4 mg/L
MRSA [1]; ST11 (EMRSA-1)
  MIC of ceftazidime: 2 mg/L
  MIC of cefuroxime: 2 mg/L
MRSA [1]; SW2-32 (EMRSA-1)
  MIC of ceftazidime: 4 mg/L
  MIC of cefuroxime: 4 mg/L
MRSA [1]; Table 2
  transformation to ceftazidime and cefuroxime sensitivity: transforms the MRSA tested to ceftazidime and cefuroxime sensitivity
MRSA [2]; EMRSA-16, +BTA 0.01%
  Oxacillin (antimicrobial plus BTA; quantity not named, MIC implied): 4 µg/mL
MRSA [2]; EMRSA-16, +BTA 0.1%
  Cephalexin (antimicrobial plus BTA; quantity not named, MIC implied): 2 µg/mL
  Oxacillin (antimicrobial plus BTA; quantity not named, MIC implied): 2 µg/mL
MRSA [2]; EMRSA-16, +BTA 1.0%
  Cephalexin (antimicrobial plus BTA; quantity not named, MIC implied): 1 µg/mL
  Oxacillin (antimicrobial plus BTA; quantity not named, MIC implied): 1 µg/mL
  Vancomycin (antimicrobial plus BTA; quantity not named, MIC implied): 0.25 µg/mL
MRSA [2]; EMRSA-17, +BTA 0.01%
  Oxacillin (antimicrobial plus BTA; quantity not named, MIC implied): 6 µg/mL
MRSA [2]; EMRSA-17, +BTA 0.1%
  Cephalexin (antimicrobial plus BTA; quantity not named, MIC implied): 2 µg/mL
  Oxacillin (antimicrobial plus BTA; quantity not named, MIC implied): 2 µg/mL
MRSA [2]; EMRSA-17, +BTA 1.0%
  Cephalexin (antimicrobial plus BTA; quantity not named, MIC implied): 1.5 µg/mL
  Oxacillin (antimicrobial plus BTA; quantity not named, MIC implied): 1.5 µg/mL
  Vancomycin (antimicrobial plus BTA; quantity not named, MIC implied): 0.25 µg/mL
MRSA [2]; I-MRSA, +BTA 0.01%
  Oxacillin (antimicrobial plus BTA; quantity not named, MIC implied): 2 µg/mL
MRSA [2]; I-MRSA, +BTA 0.1%
  Cephalexin (antimicrobial plus BTA; quantity not named, MIC implied): 1 µg/mL
  Oxacillin (antimicrobial plus BTA; quantity not named, MIC implied): 1 µg/mL
MRSA [2]; I-MRSA, +BTA 1.0%
  Cephalexin (antimicrobial plus BTA; quantity not named, MIC implied): 0.75 µg/mL
  Oxacillin (antimicrobial plus BTA; quantity not named, MIC implied): 0.75 µg/mL
  Vancomycin (antimicrobial plus BTA; quantity not named, MIC implied): < 0.25 µg/mL
[3]; L266 (first line), EMRSA-17 (VISA)
  MIC of vancomycin: 2 mg/L
[3]; L266 (second line), EMRSA-17 (VISA)
  MIC of vancomycin: 1 mg/L
[3]; NCTC 12493
  MIC of vancomycin: 0.12 mg/L
[3]; MRSA / NCTC 12493, read-out: MIC of teicoplanin, NCTC 12493
  MIC: 0.06 µg/mL
[3]; MRSA, read-out: MIC of teicoplanin, L265, EMRSA-16 (TISA)
  MIC: 1 µg/mL
[3]; MRSA, read-out: MIC of teicoplanin, L266, EMRSA-16 (TISA)
  MIC: 2 µg/mL
